From PubChem BioAssay AID1963977 (Molecular Pharmacology Branch, DTP, NCI, 2024)
Where “and” joins values, the source holds several entries; their conditions need not be identical. Equal entries are not always repeated.

Test system: 624824-186-R-J3-PDC multicell spheroids, viability
Experiment: Anticancer human tumor 624824-186-R-J3-PDC patient-derived colon adenocarcinoma cell line growth inhibition [PI3K]
Conditions: for viability, T/C: stronger effect = lower value
In short: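 Tumor cells grown as multi-cell spheroids with HUVEC endothelial cells and MSC fibroblast-like stroma were treated with targeted agents combined with inavolisib, alpelisib, duvelisib or copanlisib. Doses fell in half-log steps from near clinical Cmax, else from 10 microM. Viability was measured.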

[1] = curve of first compound, second compound 0.0316 µM
[2] = curve of first compound, second compound 0.1 µM
[3] = curve of first compound, second compound 0.316 µM
[4] = curve of first compound, second compound 1 µM
[5] = curve of first compound, second compound 3.16 µM
[6] = curve of first compound, second compound 10 µM
[7] = second compound 0.0316 µM, first compound 0.0316 µM
[8] = second compound 0.0316 µM, first compound 0.1 µM
[9] = second compound 0.0316 µM, first compound 0.316 µM
[10] = second compound 0.0316 µM, first compound 1 µM
[11] = second compound 0.0316 µM, first compound 3.16 µM
[12] = second compound 0.0316 µM, first compound 10 µM
[13] = second compound 0.1 µM, first compound 0.0316 µM
[14] = second compound 0.1 µM, first compound 0.1 µM
[15] = second compound 0.1 µM, first compound 0.316 µM
[16] = second compound 0.1 µM, first compound 1 µM
[17] = second compound 0.1 µM, first compound 3.16 µM
[18] = second compound 0.1 µM, first compound 10 µM
[19] = second compound 0.316 µM, first compound 0.0316 µM
[20] = second compound 0.316 µM, first compound 0.1 µM
[21] = second compound 0.316 µM, first compound 0.316 µM
[22] = second compound 0.316 µM, first compound 1 µM
[23] = second compound 0.316 µM, first compound 3.16 µM
[24] = second compound 0.316 µM, first compound 10 µM
[25] = second compound 1 µM, first compound 0.0316 µM
[26] = second compound 1 µM, first compound 0.1 µM
[27] = second compound 1 µM, first compound 0.316 µM
[28] = second compound 1 µM, first compound 1 µM
[29] = second compound 1 µM, first compound 3.16 µM
[30] = second compound 1 µM, first compound 10 µM
[31] = second compound 3.16 µM, first compound 0.0316 µM
[32] = second compound 3.16 µM, first compound 0.1 µM
[33] = second compound 3.16 µM, first compound 0.316 µM
[34] = second compound 3.16 µM, first compound 1 µM
[35] = second compound 3.16 µM, first compound 3.16 µM
[36] = second compound 3.16 µM, first compound 10 µM
[37] = second compound 10 µM, first compound 0.0316 µM
[38] = second compound 10 µM, first compound 0.1 µM
[39] = second compound 10 µM, first compound 0.316 µM
[40] = second compound 10 µM, first compound 1 µM
[41] = second compound 10 µM, first compound 3.16 µM
[42] = second compound 10 µM, first compound 10 µM
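Also: spheroids exposed to agents for seven days before luminescence read.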
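For viability, T/C in this document: luminescent signal used as a stand-in for spheroid viability; percent viability relative to DMSO vehicle control wells taken as 100%.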

Work on CCCS(=O)(=O)Nc1ccc(F)c(C(=O)c2c[nH]c3ncc(-c4ccc(Cl)cc4)cc23)c1F + CC(Nc1ncnc2nc[nH]c12)c1cc2cccc(Cl)c2c(=O)n1-c1ccccc1 yielded an IC50 [1] of 4.91 µM, an IC50 [2] of 4.92 µM and an IC50 [3] of 5.07 µM. The IC50 [4] was 4.8 µM, the IC50 [5] was 4.68 µM and the IC50 [6] was 2.45 µM. For the same molecule, the viability, T/C [7] was 102%, the viability, T/C [8] was 101% and the viability, T/C [9] was 89.4%. It also gave a viability, T/C [10] of 98%, a viability, T/C [11] of 76% and a viability, T/C [12] of 7.94%. It also gave a viability, T/C [13] of 102%, a viability, T/C [14] of 104% and a viability, T/C [15] of 94.1%. It also gave a viability, T/C [16] of 90.5%, a viability, T/C [17] of 78.9% and a viability, T/C [18] of 6.92%. For the same molecule, the viability, T/C [19] was 102%, the viability, T/C [20] was 95.2% and the viability, T/C [21] was 108%. The viability, T/C [22] was 91.7%, the viability, T/C [23] was 80.4% and the viability, T/C [24] was 7.81%. It also gave a viability, T/C [25] of 99.9%, a viability, T/C [26] of 103% and a viability, T/C [27] of 91.5%. The viability, T/C [28] was 84%, the viability, T/C [29] was 78.2% and the viability, T/C [30] was 7.61%. For the same molecule, the viability, T/C [31] was 100%, the viability, T/C [32] was 90.5% and the viability, T/C [33] was 97.1%. For the same molecule, the viability, T/C [34] was 81%, the viability, T/C [35] was 74.2% and the viability, T/C [36] was 9.32%. It also gave a viability, T/C [37] of 97.4%, a viability, T/C [38] of 74.6% and a viability, T/C [39] of 73.7%. The viability, T/C [40] was 60.5%, the viability, T/C [41] was 56% and the viability, T/C [42] was 11.7%.
C#Cc1c(F)ccc2cc(O)cc(-c3ncc4c(N5CC6CCC(C5)N6)nc(OCC56CCCN5CC(F)C6)nc4c3F)c12 (stereo not drawn) + CC(Nc1ncnc2nc[nH]c12)c1cc2cccc(Cl)c2c(=O)n1-c1ccccc1 gave an IC50 [1] of over 10 µM, an IC50 [2] of over 10 µM and an IC50 [3] of over 10 µM. For the same molecule, the IC50 [4] was over 10 µM, the IC50 [5] was over 10 µM and the IC50 [6] was over 10 µM. For the same molecule, the viability, T/C [7] was 115%, the viability, T/C [8] was 93.2% and the viability, T/C [9] was 104%. The viability, T/C [10] was 101%, the viability, T/C [11] was 97% and the viability, T/C [12] was 117%. It also gave a viability, T/C [13] of 106%, a viability, T/C [14] of 99.2% and a viability, T/C [15] of 117%. The viability, T/C [16] was 113%, the viability, T/C [17] was 105% and the viability, T/C [18] was 115%. For the same molecule, the viability, T/C [19] was 88.4%, the viability, T/C [20] was 103% and the viability, T/C [21] was 109%. The viability, T/C [22] was 102%, the viability, T/C [23] was 114% and the viability, T/C [24] was 115%. It also gave a viability, T/C [25] of 102%, a viability, T/C [26] of 110% and a viability, T/C [27] of 108%. For the same molecule, the viability, T/C [28] was 103%, the viability, T/C [29] was 111% and the viability, T/C [30] was 112%. For the same molecule, the viability, T/C [31] was 96%, the viability, T/C [32] was 105% and the viability, T/C [33] was 105%. For the same molecule, the viability, T/C [34] was 95.3%, the viability, T/C [35] was 100% and the viability, T/C [36] was 110%. The viability, T/C [37] was 96.3%, the viability, T/C [38] was 97% and the viability, T/C [39] was 94.5%. The viability, T/C [40] was 92.8%, the viability, T/C [41] was 98.3% and the viability, T/C [42] was 85.7%.
With C#Cc1c(F)ccc2cc(O)cc(-c3ncc4c(N5CC6CCC(C5)N6)nc(OCC56CCCN5CC(F)C6)nc4c3F)c12 (stereo not drawn) the viability, T/C (compound 0.0316 µM) was 120% and 98.2% and 102% (2×), the viability, T/C (compound 0.1 µM) was 105% and 102% (2×) and 101% and the viability, T/C (compound 0.316 µM) was 101% [middle of 4 runs]. The viability, T/C (compound 1 µM) was 101% [middle of 4 runs], the viability, T/C (compound 3.16 µM) was 108% [middle of 4 runs] and the viability, T/C (compound 10 µM) was 107% [middle of 4 runs]. It also gave an IC50 (curve of compound) of over 10 µM.
Molecule CC(C)NCC(C(=O)N1CCN(c2ncnc3c2C(C)CC3O)CC1)c1ccc(Cl)cc1 (stereo not drawn) + CC(Nc1ncnc2nc[nH]c12)c1cc2cccc(Cl)c2c(=O)n1-c1ccccc1 has an IC50 [1] of over 10 µM, an IC50 [2] of over 10 µM and an IC50 [3] of over 10 µM. For the same molecule, the IC50 [4] was over 10 µM, the IC50 [5] was 6.42 µM and the IC50 [6] was 8.04 µM. The viability, T/C [7] was 124%, the viability, T/C [8] was 99% and the viability, T/C [9] was 94.2%. For the same molecule, the viability, T/C [10] was 80.5%, the viability, T/C [11] was 72.5% and the viability, T/C [12] was 52.4%. The viability, T/C [13] was 108%, the viability, T/C [14] was 89.1% and the viability, T/C [15] was 95.5%. It also gave a viability, T/C [16] of 81.2%, a viability, T/C [17] of 59.9% and a viability, T/C [18] of 56.2%. The viability, T/C [19] was 103%, the viability, T/C [20] was 103% and the viability, T/C [21] was 106%. It also gave a viability, T/C [22] of 79.2%, a viability, T/C [23] of 59.8% and a viability, T/C [24] of 54.2%. It also gave a viability, T/C [25] of 104%, a viability, T/C [26] of 110% and a viability, T/C [27] of 115%. The viability, T/C [28] was 74.7%, the viability, T/C [29] was 62.8% and the viability, T/C [30] was 45.8%. The viability, T/C [31] was 93%, the viability, T/C [32] was 89.7% and the viability, T/C [33] was 89.5%. For the same molecule, the viability, T/C [34] was 71.6%, the viability, T/C [35] was 57.4% and the viability, T/C [36] was 45.7%. It also gave a viability, T/C [37] of 98.2%, a viability, T/C [38] of 89.5% and a viability, T/C [39] of 80%. For the same molecule, the viability, T/C [40] was 72%, the viability, T/C [41] was 56% and the viability, T/C [42] was 48.7%.
